# Data from patent US12559750B2, “Methods and compositions for treatment of polycystic kidney disease” (Regulus Therapeutics Inc., priority 2021, dated 2026).
# Tested on: AMPA-R
# Experiment: [3H]AMPA radioligand binding assay on rat brain synaptic membranes;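 also: competition binding in which test compounds at rising concentrations displace [3H]AMPA from AMPA-R on rat brain synaptic membranes, with reduced bound radioligand as read-out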
# Method: The activity of anti-miR-17 compounds was evaluated in a radioligand binding assay which measured the binding of the [^3H] AMPA ligand to the AMPA-R present on rat brain synaptic membranes, in the presence of increasing concentrations of anti-miR-17 compound, anti-miR-17 compounds with affinity for the AMPA-R will bind to and compete with the binding of the [^3H] AMPA ligand.
# 5.0 nM of the ligand [^3H] AMPA, 1.0 mM of the non-specific ligand L-Glutamic acid, and anti-miR compound at uM concentrations were incubated with synaptic membranes prepared from Wistar rat cerebral cortex for 90 minutes.
# The compounds were tested in the radioligand binding assay described herein, to determine the ability of the anti-miR-17 compounds to and compete with the binding of the [3H] AMPA ligand.
IC50 (Experiment #2) [µM],"% Inhibition @ 0.1 uM (Experiment #2, 0.1 uM) [%]","% Inhibition @ 1 uM (Experiment #2, 1 uM) [%]","% Inhibition @ 10 uM (Experiment #2, 10 uM) [%]","% Inhibition @ 100 uM (Experiment #2, 100 uM) [%]",Sequence,also measured
,,,,,"AECETEGSTEAASGSCMAFCFUFUMUSCS (ACTGTAAGCACUUUC; S-cEt, 2'-MOE, 2'-F, 2'-OMe modifications; modified_base 3 OTHER; thymine; modified_base 5 OTHER; misc_feature 1..15 Synthetic: RG-NG-1018; modified_base 1..3 OTHER; 2'-O-methoxyethyl nucleoside; modified_base 4 OTHER; S-constrained ethyl nucleoside; modified_base 7..8 OTHER; modified_base 9 OTHER; 2'-O-methyl nucleoside; modified_base 10..12 OTHE)","IC50 (Experiment #3): > 100 µM; % Inhibition @ 0.1 uM (Experiment #3, 0.1 uM): 3%; % Inhibition @ 1 uM (Experiment #3, 1 uM): 8.1%; % Inhibition @ 10 uM (Experiment #3, 10 uM): 1%; % Inhibition @ 100 uM (Experiment #3, 100 uM): 12.3%"
> 100,−11.8,2.7,13,32.6,AEGECMAFCFUFUMTEGE [RG-NG-1009],
3.44,0.7,31.3,70.1,86.4,AEGECMAFCFUFUMUSGS [RG-NG-1010],
,,,,,AFGSCMAFCFUFUMUSGE [RG-NG-1023],"IC50 (Experiment #3): 3.12 µM; % Inhibition @ 0.1 uM (Experiment #3, 0.1 uM): 3.1%; % Inhibition @ 1 uM (Experiment #3, 1 uM): 25.6%; % Inhibition @ 10 uM (Experiment #3, 10 uM): 75.2%; % Inhibition @ 100 uM (Experiment #3, 100 uM): 95.3%"
,,,,,ALGLCLALCLTLTLTLGL [RG-NG-1006],"IC50 (Experiment #1): 2.77 µM; % Inhibition @ 0.1 uM (Experiment #1, 0.1 uM): 6.7%; % Inhibition @ 1 uM (Experiment #1, 1 uM): 35.3%; % Inhibition @ 10 uM (Experiment #1, 10 uM): 68.9%; % Inhibition @ 100 uM (Experiment #1, 100 uM): 93.9%"
2.56,−2.2,30.6,78.5,94,ALGLCMAFCFUFUMUSGS [RG-NG-1011],
> 100,2.9,6.5,15,1.9,AMAMGLCLALCLUMTLUCM [RG-NG-1030],
> 100,−4.3,1,2.7,16.7,AMAMGLCLALCLUMTLUM [RG-NG-1031],
> 100,0.9,15.9,7,38.4,AMGLCLALCLUMTLUCM [RG-NG-1029],
> 100,−3.8,−5.6,3.7,37.2,ASASGSCMAFCFUFUMUS [RG-NG-1013],
,,,,,"ASCSTGSUSAASGSCMAFCFUFUMUSCS (ACTGUAAGCACUUUC; cEt at 1, 2, 4, 5, 7, 8, 14, 15, 2'-O-methyl at 9, 13, 2'-fluoro at 10, 11, 12, other sugars and backbone not given here) [RG-NG-1019]","IC50 (Experiment #3): > 100 µM; % Inhibition @ 0.1 uM (Experiment #3, 0.1 uM): 12.9%; % Inhibition @ 1 uM (Experiment #3, 1 uM): 17.2%; % Inhibition @ 10 uM (Experiment #3, 10 uM): 15.6%; % Inhibition @ 100 uM (Experiment #3, 100 uM): 21%"
56.6,−22.4,13.6,22.1,59.6,ASGECMAFCFUFUMTEGS [RG-NG-1008],
2.56,9.9,38.5,69,88.3,ASGLCMAFCFUFUMTLGS [RG-NG-1012],
1.69,3.1,39.7,83.2,94.3,ASGSCFAFCFUFUFUSGS [RG-NG-1007],
,,,,,ASGSCMAFCFUFUMTEGE [RG-NG-1024],"IC50 (Experiment #3): > 100 µM; % Inhibition @ 0.1 uM (Experiment #3, 0.1 uM): −17%; % Inhibition @ 1 uM (Experiment #3, 1 uM): −4.7%; % Inhibition @ 10 uM (Experiment #3, 10 uM): 6.5%; % Inhibition @ 100 uM (Experiment #3, 100 uM): 35.2%"
> 100,14.9,−5.5,8.6,20.4,ASGSCMAFCFUFUMUS [RG-NG-1014],
,,,,,ASGSCMAFCFUFUMUSAM [RG-NG-1038],"IC50 (Table 8): 8.23 µM; % Inhibition @ Concentration 100 uM (Table 8 (3′-terminal nucleobase/sugar variants), 100 uM): 81.3%; % Inhibition @ Concentration 0.1 uM (Table 8, 0.1 uM): 17.9%; % Inhibition @ Concentration 1 uM (Table 8, 1 uM): 25.4%; % Inhibition @ Concentration 10 uM (Table 8, 10 uM): 47.4%"
